One test deals with T1, hM4 receptors (Homo sapiens, UniProt P08173).
T1 construct: expressed in transfected cells; host or cells: CHO cells
T1 sequence (P08173 1-479): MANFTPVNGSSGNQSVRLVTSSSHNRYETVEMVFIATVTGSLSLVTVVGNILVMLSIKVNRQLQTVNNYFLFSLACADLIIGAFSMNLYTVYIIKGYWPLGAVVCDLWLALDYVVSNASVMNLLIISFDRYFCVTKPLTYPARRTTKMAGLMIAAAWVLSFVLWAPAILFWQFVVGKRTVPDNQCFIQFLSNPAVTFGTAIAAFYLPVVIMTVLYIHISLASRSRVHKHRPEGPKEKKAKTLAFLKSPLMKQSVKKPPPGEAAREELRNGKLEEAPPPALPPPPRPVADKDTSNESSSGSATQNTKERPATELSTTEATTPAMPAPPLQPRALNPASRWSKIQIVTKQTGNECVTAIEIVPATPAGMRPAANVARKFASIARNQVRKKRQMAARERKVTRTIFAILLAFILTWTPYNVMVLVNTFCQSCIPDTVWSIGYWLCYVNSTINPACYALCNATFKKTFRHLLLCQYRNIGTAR
The test can be described thus: Human M4 PAM pERK assay. The following applies: CHO cells expressing hM4; EC20 of acetylcholine (10 nM final); TR-FRET. It counts as cell-based.

The next test concerns the target T2, rM4 receptors (Rattus norvegicus, UniProt P08485).
T2 construct: expressed in transfected cells; host or cells: CHO cells
T2 sequence (P08485 1-478): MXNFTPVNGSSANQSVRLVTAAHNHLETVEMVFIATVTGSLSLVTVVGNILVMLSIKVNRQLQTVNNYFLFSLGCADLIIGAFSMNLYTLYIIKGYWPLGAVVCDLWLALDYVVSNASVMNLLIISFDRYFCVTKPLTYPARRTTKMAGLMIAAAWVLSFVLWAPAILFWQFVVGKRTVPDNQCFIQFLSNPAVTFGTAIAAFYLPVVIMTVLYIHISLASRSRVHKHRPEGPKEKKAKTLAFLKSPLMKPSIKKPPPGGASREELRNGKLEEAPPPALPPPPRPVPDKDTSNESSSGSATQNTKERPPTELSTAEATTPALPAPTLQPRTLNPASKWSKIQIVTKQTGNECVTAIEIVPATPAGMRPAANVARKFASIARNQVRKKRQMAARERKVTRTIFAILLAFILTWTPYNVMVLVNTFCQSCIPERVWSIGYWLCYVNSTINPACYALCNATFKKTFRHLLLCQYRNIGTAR
Description: Rat M4 PAM pERK assay. It counts as cell-based. The following applies: CHO cells expressing rM4; EC20 of acetylcholine (10 nM final); TR-FRET. Background: Time-resolved FRET reads energy transfer from a long-lived donor to a nearby acceptor.

The target in the next test is T3, human M4 receptor (Homo sapiens, UniProt P08173).
T3 construct: expressed in transfected cells
T3 sequence (P08173 1-479): T1 sequence (P08173 1-479)
Description: M4 GTPγS PAM assay. The following applies: membranes of CHO-K1 cells stably expressing human M4; EC20 acetylcholine 40 nM; 35S-GTP. It counts as biochemical. The essentials: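 CHO-K1 membranes stably expressing human M4, preincubated with compound and 0.1 μM GDP (final) in 20 mM HEPES, 10 mM MgCl2, 100 mM NaCl, pH 7.4, then EC20 acetylcholine (40 nM final). 35S-GTPγS binding 1 h at room temperature, filtration and scintillation counting.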

A word on the EC50: it is the concentration needed to bring the measured effect to its halfway point. Take `COc1nc(C#N)nc2c1C(C)N(C(=O)CC1CN(c3cccnc3)C1)C2` (single isomer, unassigned) [Compound I-8, 4-Methoxy-5-methyl-6-(2-(1-(pyridin-3-yl)azetidin-3-yl)acetyl)-6,7-dihydro-5H-pyrrolo[3,4-d]pyrimidine-2-carbonitrile]: the figures for the EC50 on hM4 receptors, at rM4 receptors and at human M4 receptor were at most 100 nM, 100 to 500 nM and 500 to 2000 nM, respectively.

In the case of `COc1cc(N2CC(CC(=O)N3Cc4nc(C#N)nc(OC)c4C3C)C2)cc(C(F)(F)F)n1` (stereo not drawn) [Compound I-31, 4-Methoxy-6-(2-(1-(2-methoxy-6-(trifluoromethyl)pyridin-4-yl)azetidin-3-yl)acetyl)-5-methyl-6,7-dihydro-5H-pyrrolo[3,4-d]pyrimidine-2-carbonitrile], the EC50 on hM4 receptors was 100 to 500 nM; at rM4 receptors, at least 2000 nM; on human M4 receptor, at least 2000 nM.

Regarding `COc1nc(C#N)nc2c1CN(C(=O)CC1CN(c3ccnc(C(F)(F)F)c3)C1)C2C` (single isomer, unassigned) [Compound I-34, 4-Methoxy-7-methyl-6-(2-(1-(2-(trifluoromethyl)pyridin-4-yl)azetidin-3-yl)acetyl)-6,7-dihydro-5H-pyrrolo[3,4-d]pyrimidine-2-carbonitrile], the EC50 at hM4 receptors is 500 to 2000 nM; on rM4 receptors, at least 2000 nM; at human M4 receptor, 500 to 2000 nM.

With `COc1nc(C#N)nc2c1C(C)N(C(=O)CC1CN(c3cnnc(C(F)(F)F)c3)C1)C2` (single isomer, unassigned) [Compound I-24, 4-Methoxy-5-methyl-6-(2-(1-(6-(trifluoromethyl)pyridazin-4-yl)azetidin-3-yl)acetyl)-6,7-dihydro-5H-pyrrolo[3,4-d]pyrimidine-2-carbonitrile], the concentration for a half-maximal effect (EC50) at hM4 receptors, on rM4 receptors and at human M4 receptor was at least 2000 nM throughout.

On to `COc1nc(C#N)nc2c1C(C)N(C(=O)CC1CN(c3cccc(F)c3F)C1)C2` (single isomer, unassigned) [Compound I-19, 6-(2-(1-(2,3-Difluorophenyl)azetidin-3-yl)acetyl)-4-methoxy-5-methyl-6,7-dihydro-5H-pyrrolo[3,4-d]pyrimidine-2-carbonitrile], for which the EC50 on hM4 receptors, on rM4 receptors and at human M4 receptor was 100 to 500 nM throughout.

In the case of `COc1nc(C#N)nc2c1C(C)N(C(=O)CC1CN(c3ccc(C#N)cc3)C1)C2` (single isomer, unassigned) [Compound I-23, 6-(2-(1-(4-Cyanophenyl)azetidin-3-yl)acetyl)-4-methoxy-5-methyl-6,7-dihydro-5H-pyrrolo[3,4-d]pyrimidine-2-carbonitrile], the values for the EC50 at hM4 receptors, on rM4 receptors and at human M4 receptor were at most 100 nM, 100 to 500 nM and at most 100 nM, respectively.

Consider `COc1nc2c(c(OC)n1)C(C)N(C(=O)CC1CN(c3ccnc(C(F)(F)F)c3)C1)C2` (racemic) [Compound I-67, 1-(2,4-Dimethoxy-5-methyl-5,7-dihydro-6H-pyrrolo[3,4-d]pyrimidin-6-yl)-2-(1-(2-(trifluoromethyl)pyridin-4-yl)azetidin-3-yl)ethan-1-one], for which the EC50 at hM4 receptors is 100 to 500 nM; on rM4 receptors, 500 to 2000 nM; at human M4 receptor it was at most 100 nM.

Turning to `COc1nc(C#N)nc2c1C(C)N(C(=O)CC1CN(c3cncnc3)C1)C2` (single isomer, unassigned) [Compound I-27, 4-Methoxy-5-methyl-6-(2-(1-(pyrimidin-5-yl)azetidin-3-yl)acetyl)-6,7-dihydro-5H-pyrrolo[3,4-d]pyrimidine-2-carbonitrile], the EC50 on hM4 receptors was at most 100 nM; on rM4 receptors, 500 to 2000 nM; at human M4 receptor, at least 2000 nM.

In the case of `COc1nc2c(c(OC)n1)C(C)N(C(=O)CC1CN(c3ccc(C#N)cc3)C1)C2` (single isomer, unassigned) [Compound I-65, 4-(3-(2-(2,4-dimethoxy-5-methyl-5,7-dihydro-6H-pyrrolo[3,4-d]pyrimidin-6-yl)-2-oxoethyl)azetidin-1-yl)benzonitrile], the EC50 at hM4 receptors, on rM4 receptors and on human M4 receptor was at least 2000 nM throughout.

With `Cc1nc2c(c(OC(C)C)n1)CN(C(=O)CC1CN(c3ccnc(C(F)(F)F)c3)C1)C2` [Compound I-47, 1-(4-Isopropoxy-2-methyl-5,7-dihydro-6H-pyrrolo[3,4-d]pyrimidin-6-yl)-2-(1-(2-(trifluoromethyl)pyridin-4-yl)azetidin-3-yl)ethan-1-one], the EC50 on hM4 receptors, at rM4 receptors and at human M4 receptor was at least 2000 nM in each case.

Consider `COc1nc(C)c2c(n1)CN(C(=O)CC1CN(c3ccnc(C(F)(F)F)c3)C1)C2` [Compound I-75, 1-(2-Methoxy-4-methyl-5,7-dihydro-6H-pyrrolo[3,4-d]pyrimidin-6-yl)-2-(1-(2-(trifluoromethyl)pyridin-4-yl)azetidin-3-yl)ethan-1-one], for which the EC50 is 100 to 500 nM on hM4 receptors, at least 2000 nM on rM4 receptors and 100 to 500 nM at human M4 receptor.

For `COc1nc2c(c(OC)n1)C(C)N(C(=O)CC1CN(c3ccnc(C(F)(F)F)c3)C1)C2` (single isomer, unassigned) [Compound I-68, 1-(2,4-Dimethoxy-5-methyl-5,7-dihydro-6H-pyrrolo[3,4-d]pyrimidin-6-yl)-2-(1-(2-(trifluoromethyl)pyridin-4-yl)azetidin-3-yl)ethan-1-one], the concentration for a half-maximal effect (EC50) at hM4 receptors was 100 to 500 nM; at rM4 receptors it was 100 to 500 nM; on human M4 receptor, at most 100 nM.

As for `COc1nc(C#N)nc2c1C(C)N(C(=O)CC1CN(c3ccnc(C(F)(F)F)c3)C1C)C2` (single isomer, unassigned) [Compound I-37, 4-Methoxy-5-methyl-6-(2-(2-methyl-1-(2-(trifluoromethyl)pyridin-4-yl)azetidin-3-yl)acetyl)-6,7-dihydro-5H-pyrrolo[3,4-d]pyrimidine-2-carbonitrile], the concentration for a half-maximal effect (EC50) on hM4 receptors is at most 100 nM; at rM4 receptors, 100 to 500 nM; on human M4 receptor it was at most 100 nM.

For the compound `COc1nc(C#N)nc2c1C(C)N(C(=O)CC1CN(c3ncns3)C1)C2` (single isomer, unassigned) [Compound I-4, 6-(2-(1-(1,2,4-Thiadiazol-5-yl)azetidin-3-yl)acetyl)-4-methoxy-5-methyl-6,7-dihydro-5H-pyrrolo[3,4-d]pyrimidine-2-carbonitrile], the EC50 on hM4 receptors, at rM4 receptors and on human M4 receptor was at least 2000 nM in each case.

In the case of `COc1nc(C2CC2)nc2c1CN(C(=O)CC1CN(c3ccnc(C(F)(F)F)c3)C1)C2` [Compound I-79, 1-(2-Cyclopropyl-4-methoxy-5,7-dihydro-6H-pyrrolo[3,4-d]pyrimidin-6-yl)-2-(1-(2-(trifluoromethyl)pyridin-4-yl)azetidin-3-yl)ethan-1-one], the EC50 is 500 to 2000 nM on hM4 receptors, 500 to 2000 nM at rM4 receptors and 100 to 500 nM on human M4 receptor.

Regarding `COc1nc2c(c(C3CCC3)n1)CN(C(=O)CC1CN(c3ccnc(C(F)(F)F)c3)C1)C2` [Compound I-74, 1-(4-Cyclobutyl-2-methoxy-5,7-dihydro-6H-pyrrolo[3,4-d]pyrimidin-6-yl)-2-(1-(2-(trifluoromethyl)pyridin-4-yl)azetidin-3-yl)ethan-1-one], the EC50 at hM4 receptors, at rM4 receptors and at human M4 receptor was at least 2000 nM throughout.

On to `COc1nc(OC)c2c(n1)C(C)N(C(=O)CC1CN(c3ccnc(C(F)(F)F)c3)C1)C2` (single isomer, unassigned) [Compound I-71, 1-(2,4-Dimethoxy-7-methyl-5,7-dihydro-6H-pyrrolo[3,4-d]pyrimidin-6-yl)-2-(1-(2-(trifluoromethyl)pyridin-4-yl)azetidin-3-yl)ethan-1-one], for which the EC50 at hM4 receptors is 500 to 2000 nM; at rM4 receptors it was at least 2000 nM; at human M4 receptor it was 500 to 2000 nM.

With `COc1nc(C)nc2c1C(C)N(C(=O)CC1CN(c3ccnc(C(F)(F)F)c3)C1)C2` (single isomer, unassigned) [Compound I-53, 1-(4-Methoxy-2,5-dimethyl-5,7-dihydro-6H-pyrrolo[3,4-d]pyrimidin-6-yl)-2-(1-(2-(trifluoromethyl)pyridin-4-yl)azetidin-3-yl)ethan-1-one], the EC50 on hM4 receptors, at rM4 receptors and on human M4 receptor was at least 2000 nM in each case.
